Laboratory results from patent US5493027A, “Anticonvulsive agents and uses thereof” (priority 1993, dated 1996).
Read-outs that look alike come from different tables or passages of the source.

Tests used:
[1] = system: pentylenetetrazole (Metrazol) induced seizures; experiment: Subcutaneous pentylenetetrazole (Metrazol) seizure threshold test (Met) in mice; assay type: in vivo, male Carworth Farms number-1 mice; conditions: for minimal effective dose: Mus musculus, ip; for (Maximum Ineffective) Intraperitoneal Dose, Met: Table 7, value in parentheses = maximum ineffective dose; for Sc MET / Sc MET repeated: protected: mice i.p.; for Sc MET repeated: protected: repeat
Method: (§1) Compounds were screened for anticonvulsant activity in male Carworth Farms number-1 mice. Test solutions of all compounds were prepared in 30% polyethylene glycol 400, and animals were dosed intraperitoneally at either 30 minutes or 4 hours prior to testing. Testing was conducted on four mice at each of three dose levels (30, 100, and 300 mg/kg).
(§2) In the subcutaneous pentylenetetrazole (Metrazol) seizure threshold test(met), 85 mg/kg pentylenetetrazole was administered as a 0.5% solution in the posterior midline. Protection in this test was defined as a failure to observe a single episode of clonic spasms of at least 5 s duration during the 30 minute period following administration of the convulsive agent.
as §1, with “Biological testing--Compounds” for “Compounds”, “number-one” for “number-1”, “min” for “minutes”, “h” for “hours”
as §2, with “test (Met),” for “test(met),”, “min” for “minute”

[2] = Rotorod test for neurological deficit (TOX) in mice; assay type: in vivo, male Carworth Farms number-1 mice; conditions: mouse, in vivo, ip
Method: as §1
(§3) Animals were also tested for neurological deficit using the rotorod. After treatment, the animal was placed on a 1 inch diameter knurled plastic rod rotating at 6 rpm. Neurologic deficit was defined as the failure of the animal to remain on the rod for 1 minute.
as §1, with “Biological testing--Compounds” for “Compounds”, “number-one” for “number-1”, “min” for “minutes”, “h” for “hours”
(§4) Animals were also tested for neurological deficit using the rotorod. After treatment, the animal was placed on a 1 inch diameter knurled plastic rod rotating at 6 rpm. Neurologic deficit was defined as the failure of the animal to remain on the rod for 1 min.

[3] = system: quinolinic acid induced seizures; conditions: intracerebroventricular, CD-1 mice (Baron et al., 1990); cited from earlier work
[4] = system: maximal electroshock seizures (MES); experiment: animal or person; assay type: in vivo, male Carworth Farms number-1 mice; conditions: for minimal effective dose: Mus musculus, ip; for MES: mice i.p.
Method: as §1
(§5) Maximal electroshock seizures (MES) were elicited with a 60 cycle alternatiing current of 50-mA intensity (five to seven times that necessary to evoke minimal electroshock threshold seizures). Current was delivered via corneal electrodes for 0.2 s. A drop of 0.9% saline was instilled in the eye prior to application of electrodes. Abolition of the hindlimb tonic extension component of the seizure was defined as protection in the MES test.
as §1, with “Biological testing--Compounds” for “Compounds”, “number-one” for “number-1”, “min” for “minutes”, “h” for “hours”
as §5, with “alternating” for “alternatiing”

[5] = target: T1, strychnine-insensitive glycine binding site of the NMDA receptor (Rattus norvegicus, UniProt P35439); experiment: Inhibition of [3H]glycine specific binding (strychnine-insensitive) in rat cerebral cortex membranes; conditions: 10 uM compound
T1 construct: Membranes were prepared from rat cerebral cortex; from tissue; host or cells: rat cerebral cortex, "buffy coat" membranes
Method: Binding Studies--Inhibition of [^3 H]glycine specific binding was assayed using [^3 H]glycine (43 Ci/mmol) obtained from DuPont-New England Nuclear. […] Membranes were prepared from rat cerebral cortex and assays were conducted in Na-free 50 mM HEPES (Sigma) at pH 7.4. Membranes were incubated in a final volume of 1 ml with 20 nM [^3 H]glycine and a 10 uM concentration of the test compound. Although experience has shown that [^3 H]glycine binding in this preparation is strychnine insensitive, 10 uM strychnine was added to the assay mixtures to eliminate the possibility that any effects studied could be mediated through a strychnine-sensitive process. Incubation was continued for 20 min at 4° C. Non-specific binding was determined in the presence of 1 mM glycine and subtracted. All conditions were tested in triplicate in 3 different assays. Binding was terminated using a Brandel M-24C cell harvester employing rapid filtration through GF/C glass fiber filters pre-soaked in 1% (V/V) polyethylenimine. Filters were washed twice with 5 ml buffer cooled to 4° C. Radioactivity bound to the filters was determined with a Beckman LS-500OTD liquid scintillation counter.

[6] = system: seizures induced by electroshock and pentylenetetrazole; experiment: Anticonvulsant testing, overall (MES and Met); assay type: in vivo, male Carworth Farms number-1 mice; conditions: for minimal effective dose: Mus musculus, ip, read-out: dose level with anticonvulsant activity (test not given)
Method: as §1, §5, §2
as §1, with “Biological testing--Compounds” for “Compounds”, “number-one” for “number-1”, “min” for “minutes”, “h” for “hours”
as §5, with “alternating” for “alternatiing”
as §2, with “test (Met),” for “test(met),”, “min” for “minute”

[7] = system: potentiating action of glycine on current elicited by NMDA; conditions: whole cells (Huettner, 1989); cited from earlier work
[8] = target: T1, strychnine-insensitive glycine binding site of the NMDA receptor; conditions: literature value of the standard; read-out: IC50 for glycine binding in this test system; cited from earlier work
[9] = target: strychnine-insensitive glycine binding site; conditions: see also Kemp et al., 1988; cited from earlier work
NMDA receptor = conditions: cited from earlier work
quisqualate receptor = conditions: cited from earlier work
kainate receptor = conditions: cited from earlier work
[10] = system: NMDA-associated glycine site; conditions: Xenopus oocytes injected with rat brain mRNA (Kleckner and Dingledine, 1989); cited from earlier work
anticonvulsant activity = conditions: Wong et al., 1986; Singh et al., 1990; cited from earlier work
[11] = system: neurological deficit (rotorod); experiment: Rotorod test for neurological deficit (TOX) in mice; assay type: in vivo, male Carworth Farms number-1 mice; conditions: mouse, in vivo
Method: as §1, §3
as §1, with “Biological testing--Compounds” for “Compounds”, “number-one” for “number-1”, “min” for “minutes”, “h” for “hours”
as §4

[12] = Solubility in aqueous solutions and in chloroform and other non-polar solvents; assay type: physicochemical
[13] = system: inhibitory (strychnine-sensitive) glycine receptors in the spinal cord; conditions: White et al. 1989; Huettner 1989; cited from earlier work
[14] = Table 7, value without parentheses = effective dose, read-out: Effective Intraperitoneal Dose, Met
[15] = mice, intraperitoneal, read-out: dose active in Met test
[16] = Table 7, value without parentheses = effective dose, read-out: Effective Intraperitoneal Dose, MES
[17] = mice, intraperitoneal, read-out: dose active in MES test

Compound: O=C(O)c1cc(O)c2c(Cl)cc(Cl)cc2n1 [5,7-di-Cl-kyn-2-COOH]
- minimal effective dose [1, 14]: 300 mg/kg
- minimal effective dose [1, 15]: 300 mg/kg
- Met activity ([1]; mice, intraperitoneal): mild Met activity
- NOAEL [2]: 300 mg/kg
- protection against quinolinic acid induced seizures [3]: protect against quinolinic acid induced seizures

Compound: CCOC(=O)c1cc(O)c2c(F)cc(F)cc2n1 [5,7-di-F-kyn-2-ethyl ester]
- minimal effective dose [4, 16]: 300 mg/kg
- minimal effective dose [4, 17]: 300 mg/kg
- MES activity ([4]; mice, intraperitoneal): MES activity at this dose level
- (Maximum Ineffective) Intraperitoneal Dose, Met [1]: 300 mg/kg
- NOAEL [2]: 300 mg/kg

Compound: O=C(O)c1cc2cc(F)ccc2[nH]1 [5-F-indole-2-COOH, 5-fluoro-indole-2-carboxylic acid]
- minimal effective dose ([4]; read-out: Effective Intraperitoneal Dose, MES): 100 mg/kg
- minimal effective dose ([4]; read-out: dose active in MES test): 100 mg/kg
- (Maximum Ineffective) Intraperitoneal Dose, Met [1]: 300 mg/kg
- NOAEL ([2]; Table 7, value in parentheses = maximum ineffective dose, read-out: (Maximum Ineffective) Intraperitoneal Dose, Rotorod): 300 mg/kg
- [3H]glycine binding inhibition [5]: most potent inhibitor of [^3 H]glycine binding in this group
- minimal effective dose [6]: 100 mg/kg
- inhibition of potentiating action of glycine on NMDA current [7]: inhibit competitively the potentiating action of glycine

Compound: CCCCOC(=O)c1cc2cc(F)ccc2[nH]1 [5-F-indole-2-butyl ester, butyl ester of 5-fluoro-indole-2-carboxylic acid]
- minimal effective dose [1, 14]: 300 mg/kg
- minimal effective dose [1, 15]: 300 mg/kg
- NOAEL [2]: 300 mg/kg
- [3H]glycine binding inhibition [5]: binding characteristics were similar to those of the ethyl ester
- minimal effective dose ([6]; mice, intraperitoneal): 300 mg/kg

Compound: CCOC(=O)c1cc2cc(F)ccc2[nH]1 [5-F-indole-2-ethyl ester, 5-fluoro-indole-2-ethyl carboxylate]
- minimal effective dose [4, 16]: 100 mg/kg
- minimal effective dose [4, 17]: 100 mg/kg
- minimal effective dose [1, 14]: 300 mg/kg
- minimal effective dose [1, 15]: 300 mg/kg
- NOAEL [2]: 300 mg/kg

Compound: O=C(O)c1cc(O)c2ccc(Cl)cc2n1 [7-Cl-Kyn, 7-chloro-kynurenic acid]
- IC50 [8]: 270 to 560 nM
- IC50 [9]: 560 nM
- IC50 (NMDA receptor; see also Kemp et al., 1988): 169 µM
- IC50 (quisqualate receptor; see also Kemp et al., 1988): 153 µM
- IC50 (kainate receptor; see also Kemp et al., 1988, unit inferred): > 1 mM
- more potent as antagonist at the NMDA-associated glycine site than at the receptor mediating kainate currents [10]: approximately 40 fold
- anticonvulsant activity (words, literature) (anticonvulsant activity): demonstrate anticonvulsant activity

Compound: C[C@]12N[C@H](Cc3ccccc31)c1ccccc12 [MK-801]
- anticonvulsant activity (words, literature) (anticonvulsant activity): demonstrate anticonvulsant activity

Compound: CCOC(=O)c1cc(NC)c2c(Cl)cc(Cl)cc2n1 [ethyl 4-methylamino-5,7-dichloro-2-quinoline carboxylate]
- MES ([4]; 30 minutes, 30 mg/kg): 0/1
- MES ([4]; 30 minutes, 100 mg/kg): 0/3
- MES ([4]; 30 minutes, 300 mg/kg): 0/1
- MES ([4]; 4 hours, 30 mg/kg): 0/1
- MES ([4]; 4 hours, 100 mg/kg): 0/3
- MES ([4]; 4 hours, 300 mg/kg): 0/1
- minimal effective dose [4, 17]: 30 mg/kg
- Sc MET ([1]; 30 minutes, 30 mg/kg): 1/1
- Sc MET ([1]; 30 minutes, 100 mg/kg): 1/1
- Sc MET ([1]; 30 minutes, 300 mg/kg): 1/1
- Sc MET ([1]; 4 hours, 30 mg/kg): 0/1
- Sc MET ([1]; 4 hours, 100 mg/kg): 0/1
- Sc MET ([1]; 4 hours, 300 mg/kg): 0/1
- minimal effective dose [1, 14]: 30 mg/kg
- minimal effective dose [1, 15]: 30 mg/kg
- Sc MET repeated: protected ([1]; 30 minutes, 30 mg/kg): 1/4
- Sc MET repeated: protected ([1]; 30 minutes, 100 mg/kg): 2/4
- Sc MET repeated: protected ([1]; 30 minutes, 300 mg/kg): 4/4
- NOAEL [2]: 300 mg/kg
- Sc MET repeated: toxic ([11]; 30 mg/kg): 0/4
- Sc MET repeated: toxic ([11]; 100 mg/kg): 0/4
- Sc MET repeated: toxic ([11]; 300 mg/kg): 0/4
- [3H]glycine binding inhibition [5]: poor binding inhibition
- minimal effective dose ([6]; mice, intraperitoneal): ≤ 100 mg/kg
- CLASS ([6]; Phase I Identification: mice, i.p., classes not defined in the patent): 1
- anticonvulsant activity (words) ([6]; mice, intraperitoneal): high anticonvulsant activity
- anticonvulsant activity (words) ([6]; mice, intraperitoneal, listed as ethyl 4-methylamino-5,7-dichloro-2-quinoline carboxylate): most potent anticonvulsant
- anticonvulsant activity (words) ([6]; mice, intraperitoneal, listed as ethyl-4-methylamino-5,7-dichloro-2-quinoline carboxylate): particularly effective anticonvulsant agent
- solubility in chloroform and other non-polar solvents [12]: appreciably soluble in chloroform and other non-polar solvents

Compound: O=C(O)c1cc2ccccc2[nH]1 [indole-2-carboxylic acid]
- activity at strychnine-sensitive sites [13]: inactive

Compound: O=C(O)c1cc(O)c2ccccc2n1 [kynurenic acid, 4-hydroxy-2-quinolinecarboxylic acid]
- excitatory amino acid antagonist activity at NMDA receptors (NMDA receptor): nonselective excitatory amino acid antagonist
- excitatory amino acid antagonist activity at quisqualate receptors (quisqualate receptor): nonselective excitatory amino acid antagonist
- excitatory amino acid antagonist activity at kainate receptors (kainate receptor): nonselective excitatory amino acid antagonist
- activity at strychnine-sensitive sites [13]: inactive
